The values below come from patent US20260306642A1, “STAT DEGRADERS AND USES THEREOF” (Recludix Pharma, Inc., priority 2023, published 2026).

The target in the first experiment is pSTAT3 (Homo sapiens, UniProt P40763). Kind of experiment: MSD-pSTAT-PBMC Assay (pSTAT3, IL-6 stimulated). It is filed as cell-based. The settings on record: compound 3 hrs, then 10 ng/mL IL-6 10 min, pY705-STAT3, read-out: pSTAT3 IC50. From the text: Cryopreserved Peripheral Blood Mononuclear Cells (PBMC) are from AllCells. Recombinant Human IL-4 and IL-6 are from Peprotech. Mouse monoclonal anti-STAT3 antibody, rabbit monoclonal anti-pY705-STAT3 antibody, rabbit monoclonal Anti-pY641-STAT6 antibody, and lysis buffer are from Cell Signaling Technology (CST). Mouse monoclonal anti-STAT6 antibody is from BioLegend. Assay plates, blocker, and anti-rabbit secondary antibody are from Meso Scale Discovery (MSD).
Chain of pSTAT3 (P40763 whole entry): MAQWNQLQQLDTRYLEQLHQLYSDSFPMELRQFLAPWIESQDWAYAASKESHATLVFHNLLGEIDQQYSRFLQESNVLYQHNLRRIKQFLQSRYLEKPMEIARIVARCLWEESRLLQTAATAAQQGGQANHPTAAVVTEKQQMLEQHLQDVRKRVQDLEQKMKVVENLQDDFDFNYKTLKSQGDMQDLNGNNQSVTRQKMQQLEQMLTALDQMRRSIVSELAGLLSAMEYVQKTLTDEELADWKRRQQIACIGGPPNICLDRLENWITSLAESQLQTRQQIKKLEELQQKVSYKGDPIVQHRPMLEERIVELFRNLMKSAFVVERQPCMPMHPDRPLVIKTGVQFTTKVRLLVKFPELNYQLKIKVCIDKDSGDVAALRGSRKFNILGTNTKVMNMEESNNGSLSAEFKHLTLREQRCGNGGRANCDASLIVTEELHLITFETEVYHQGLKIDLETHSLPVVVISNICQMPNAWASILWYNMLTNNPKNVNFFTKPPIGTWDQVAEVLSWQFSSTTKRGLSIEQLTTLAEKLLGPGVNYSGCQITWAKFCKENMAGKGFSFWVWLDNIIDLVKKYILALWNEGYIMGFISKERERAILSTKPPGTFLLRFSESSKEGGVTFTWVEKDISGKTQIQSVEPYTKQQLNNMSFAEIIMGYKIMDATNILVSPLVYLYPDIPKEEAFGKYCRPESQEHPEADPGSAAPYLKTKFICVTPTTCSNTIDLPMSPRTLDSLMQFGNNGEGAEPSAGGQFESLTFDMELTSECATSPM
Cryopreserved PBMCs were thawed out and allowed to recover overnight in IMDM+10% heat-inactivated FBS prior to plating 50,000 (STAT3) or 25,000 (STAT6) cells per well in 96-well U-bottom tissue culture plates. Cells were treated with compound for 3 hrs, then stimulated with 10 ng/mL IL-6 (STAT3) or 1 ng/mL IL-4 (STAT6) for 10 min. Cells were then spun down and washed with ice-cold PBS prior to lysing the cell pellet with 1× lysis buffer (CST) with 1× HALT protease and phosphatase inhibitor cocktail (Thermo). Lysates were transferred to and incubated overnight at 4° C. with shaking in QuickPlex 96-well high bind assay plates (MSD) pre-coated overnight with 30 μL per well of […] mouse monoclonal anti-STAT3 antibody (STAT3) or 2 μg/mL mouse monoclonal anti-STAT6 antibody (STAT6) in 1× PBS, and pre-blocked for 1 hour with 3% Blocker-A (MSD). Captured protein in the assay plates were then washed and probed with 25 μL per well of […] rabbit monoclonal anti-pY705-STAT3 antibody (STAT3) or […] rabbit monoclonal Anti-pY641-STAT6 antibody (STAT6) in 1% Blocker-A for 1 hour at room temperature with shaking, then washed and probed with 25 ul per well of 1 ug/ml Sulfo-TAG Labeled Goat Anti-Rabbit Antibody (MSD) in 1% Blocker-A for 1 hour at room temperature with shaking. Assay plates were then washed and 150 μL of 1× Read Buffer-T (MSD) was added to each well prior to reading on an SQ120 MSD Plate Reader. Assay signal from each sample was subtracted by the signal from unstimulated control wells and normalized to DMSO control wells. IC50 values were calculated using Graph Pad Prism Dose-Response Nonlinear Regression with variable slope. For both pSTAT3 and pSTAT6 A=≤100 nM; B=>100-1000 nM; C=>1000-3000 nM; and D=>3 μM.
Regarding `CCCC(=O)SCCOP(=O)(OCCSC(=O)CCC)C(F)(F)c1ccc2sc(C(=O)N[C@H]3CCC[C@H]4CC[C@@H](C(=O)N5CC(c6cnccc6OCCCCN[C@H](C(=O)N6C[C@H](O)C[C@H]6C(=O)NCc6ccc(-c7scnc7C)cc6)C(C)(C)C)C5)N4C3=O)cc2c1` [Compound 1, S,S((((difluoro(2-(((3S,6S,9aS)-3-(3-(4-(4-(((S)-1-((2S,4R)-4-hydroxy-2-((4-(4-methylthiazol-5-yl)benzyl)carbamoyl)pyrrolidin-1-yl)-3,3-dimethyl-1-oxobutan-2-yl)amino)butoxy)pyridin-3-yl)azetidine-1-carbonyl)-5-oxooctahydro-1H-pyrrolo[1,2-a]azepin-6-yl)carbamoyl)benzo[b]thiophen-5-yl)methyl)phosphoryl)bis(oxy))bis(ethane-2,1-diyl)) dibutanethioate], the IC50 lay within 100 to 1000 nM.
Take `CCCC(=O)SCCOP(=O)(OCCSC(=O)CCC)C(F)(F)c1ccc2sc(C(=O)N[C@H]3CCC[C@H]4CC[C@@H](C(=O)N5CC(c6cnccc6OCCOc6ccc(C7CCC(=O)NC7=O)cc6)C5)N4C3=O)cc2c1` (stereo partly drawn) [Compound 10, S,S(((((2-(((3S,6S,9aS)-3-(3-(4-(2-(4-(2,6-dioxopiperidin-3-yl)phenoxy)ethoxy)pyridin-3-yl)azetidine-1-carbonyl)-5-oxooctahydro-1H-pyrrolo[1,2-a]azepin-6-yl)carbamoyl)benzo[b]thiophen-5-yl)difluoromethyl)phosphoryl)bis(oxy))bis(ethane-2,1-diyl)) dibutanethioate]: the IC50 is below 100 nM.
On the same count and under the same terms, for `CCCC(=O)SCCOP(=O)(OCCSC(=O)CCC)C(F)(F)c1ccc2sc(C(=O)N[C@H]3CCC[C@H]4CC[C@@H](C(=O)N5CC(c6cnccc6OCCOCCOc6ccc(C7CCC(=O)NC7=O)cc6)C5)N4C3=O)cc2c1` (stereo partly drawn) [Compound 12, S,S((((2-(((3S,6S,9aS)-3-(3-(4-(2-(2-(4-(2,6-dioxopiperidin-3-yl)phenoxy)ethoxy)ethoxy)pyridin-3-yl)azetidine-1-carbonyl)-5-oxooctahydro-1H-pyrrolo[1,2-a]azepin-6-yl)carbamoyl)benzo[b]thiophen-5-yl)difluoromethyl)phosphoryl)bis(oxy))bis(ethane-2,1-diyl)) dibutanethioate] the value was below 100 nM; for `CCCC(=O)SCCOP(=O)(OCCSC(=O)CCC)C(F)(F)c1ccc2sc(C(=O)N[C@H]3CCC[C@H]4CC[C@@H](C(=O)N5CC(c6cnccc6N(C)CCOc6ccc(C7CCC(=O)NC7=O)cc6)C5)N4C3=O)cc2c1` (stereo partly drawn) [Compound 20, S,S(((((2-(((3S,6S,9aS)-3-(3-(4-((2-(4-(2,6-dioxopiperidin-3-yl)phenoxy)ethyl)(methyl)amino)pyridin-3-yl)azetidine-1-carbonyl)-5-oxooctahydro-1H-pyrrolo[1,2-a]azepin-6-yl)carbamoyl)benzo[b]thiophen-5-yl)difluoromethyl)phosphoryl)bis(oxy))bis(ethane-2,1-diyl)) dibutanethioate], below 100 nM.
For `Cn1c(=O)n(C2CCC(=O)NC2=O)c2ccc(C#CCCC3CCN(c4ccncc4C4CN(C(=O)[C@@H]5CC[C@@H]6CCC[C@H](NC(=O)c7cc8cc(C(F)(F)P(=O)(OCCSC(=O)C(C)(C)C)OCCSC(=O)C(C)(C)C)ccc8s7)C(=O)N65)C4)CC3)cc21` (stereo partly drawn) [Compound 35, S,S(((((2-(((3S,6S,9aS)-3-(3-(4-(4-(4-(1-(2,6-dioxopiperidin-3-yl)-3-methyl-2-oxo-2,3-dihydro-1H-benzo[d]imidazol-5-yl)but-3-yn-1-yl)piperidin-1-yl)pyridin-3-yl)azetidine-1-carbonyl)-5-oxooctahydro-1H-pyrrolo[1,2-a]azepin-6-yl)carbamoyl)benzo[b]thiophen-5-yl)difluoromethyl)phosphoryl)bis(oxy))bis(ethane-2,1-diyl)) bis(2,2-dimethylpropanethioate)], the IC50 was below 100 nM.

The same experiment, now with this note: read-out: pSTAT3 IC50, compound 3 hrs, then 10 ng/mL IL-6 10 min, pY705-STAT3.
On to `CCCC(=O)SCCOP(=O)(OCCSC(=O)CCC)C(F)(F)c1ccc2sc(C(=O)N[C@H]3CCC[C@H]4CC[C@@H](C(=O)N5CC(c6cnccc6N6CCC(C(=O)N[C@H](C(=O)N7C[C@H](O)C[C@H]7C(=O)NCc7ccc(-c8scnc8C)cc7)C(C)(C)C)CC6)C5)N4C3=O)cc2c1` [Compound 7, S,S((((difluoro(2-(((3S,6S,9aS)-3-(3-(4-(4-(((S)-1-((2S,4R)-4-hydroxy-2-((4-(4-methylthiazol-5-yl)benzyl)carbamoyl)pyrrolidin-1-yl)-3,3-dimethyl-1-oxobutan-2-yl)carbamoyl)piperidin-1-yl)pyridin-3-yl)azetidine-1-carbonyl)-5-oxooctahydro-1H-pyrrolo[1,2-a]azepin-6-yl)carbamoyl)benzo[b]thiophen-5-yl)methyl)phosphoryl)bis(oxy))bis(ethane-2,1-diyl)) dibutanethioate], for which the IC50 was in the range of 100 to 1000 nM.
For `CCCC(=O)SCCOP(=O)(OCCSC(=O)CCC)C(F)(F)c1ccc2sc(C(=O)N[C@H]3CCC[C@H]4CC[C@@H](C(=O)N5CC(c6cnccc6N6CCN(C(=O)COc7ccc(C8CCC(=O)NC8=O)cc7)CC6)C5)N4C3=O)cc2c1` (stereo partly drawn) [Compound 29, S,S(((((2-(((3S,6S,9aS)-3-(3-(4-(4-(2-(4-(2,6-dioxopiperidin-3-yl)phenoxy)acetyl)piperazin-1-yl)pyridin-3-yl)azetidine-1-carbonyl)-5-oxooctahydro-1H-pyrrolo[1,2-a]azepin-6-yl)carbamoyl)benzo[b]thiophen-5-yl)difluoromethyl)phosphoryl)bis(oxy))bis(ethane-2,1-diyl)) dibutanethioate], the IC50 was below 100 nM.
Turning to `CCCOC(=O)[C@H](C)NP(=O)(Oc1ccccc1)[C@@H](F)c1ccc2sc(C(=O)N[C@H]3CCC[C@H]4CC[C@@H](C(=O)N5CC(c6cnccc6N6CCC(CCC#Cc7ccc8c(c7)n(C)c(=O)n8C7CCC(=O)NC7=O)CC6)C5)N4C3=O)cc2c1` (stereo partly drawn) [Compound 38, propyl (((1R)-(2-(((3S,6S,9aS)-3-(3-(4-(4-(4-(1-(2,6-dioxopiperidin-3-yl)-3-methyl-2-oxo-2,3-dihydro-1H-benzo[d]imidazol-5-yl)but-3-yn-1-yl)piperidin-1-yl)pyridin-3-yl)azetidine-1-carbonyl)-5-oxooctahydro-1H-pyrrolo[1,2-a]azepin-6-yl)carbamoyl)benzo[b]thiophen-5-yl)fluoromethyl)(phenoxy)phosphoryl)-L-alaninate], the IC50 was below 100 nM.
`CCCOC(=O)[C@H](C)NP(=O)(Oc1ccccc1)[C@H](F)c1ccc2sc(C(=O)N[C@H]3CCC[C@H]4CC[C@@H](C(=O)N5CC(c6cnccc6N6CCC(CCC#Cc7ccc8c(c7)n(C)c(=O)n8C7CCC(=O)NC7=O)CC6)C5)N4C3=O)cc2c1` (stereo partly drawn) [Compound 39, propyl (((1S)-(2-(((3S,6S,9aS)-3-(3-(4-(4-(4-(1-(2,6-dioxopiperidin-3-yl)-3-methyl-2-oxo-2,3-dihydro-1H-benzo[d]imidazol-5-yl)but-3-yn-1-yl)piperidin-1-yl)pyridin-3-yl)azetidine-1-carbonyl)-5-oxooctahydro-1H-pyrrolo[1,2-a]azepin-6-yl)carbamoyl)benzo[b]thiophen-5-yl)fluoromethyl)(phenoxy)phosphoryl)-L-alaninate]: the IC50 is below 100 nM.
